# Measurements reported in patent US8957033B2, “Inhibitor of sodium-dependent glucose transport protein and preparation method therefor and use thereof” (Beijing Prelude Pharm. SCI. & Tech. Co., Ltd., priority 2011, dated 2015).
# Where two headings read alike, the source gives them in different places.
# Experiments:
# male SD rats [1] = experiment: Oral glucose tolerance test, glucose 8 hours after administration (Example 6), blood glucose; format: in vivo; conditions: for Blood glucose / ΔAUC: 10 mg/kg orally, Mean ± SD; for Effect on blood glucose level (in words): glucose at 8 hours after administration, compared with the blank control group
# Experimental: (§1) Preparation of the administrated drugs, and grouping and administration of the animals were the same as those in Example 5.
# (§2) Before the test, the rats were fasted for 16 hours and then administrated orally with the blank solution or compounds. The blood glucose baseline level was measured at 8 hours after administration, then the rats in each group were administrated orally with 50% glucose aqueous solution in an amount of 2 g/kg. The blood samples (1 drop) were taken from tail veins of rats in each group at 15 minutes, 30 minutes, 1 hour and 2 hours after oral administration of glucose, and the blood glucose level was measured by using Accu-Chek Aviva system.
# (§3) Statistical analysis was conducted and the significance level was set to be P<0.05. The mean and standard deviation were calculated for all measurement parameters which were designed for study. One-way analysis of variance (ANOVA) was performed by software GraphPad Prism 5.0 after multiple comparisons among groups.
# [2] = Pharmacokinetic test in vivo in SD rats; parameters: species or system male SD rats; conditions: 10 mg/kg; for AUC(0-inf) / AUC(0-t) / C0 / MRT / half-life / Tmax / bioavailability: male, rat, plasma; for bioavailability: read-out: F (oral bioavailability)
# Experimental: Compound 1, compound 2 and compound 3 were respectively dissolved in blank solution (5% 1-methyl-2-pyrrolidinone, 20% PEG-400 and 20 mM sodium diphosphate) in a concentration of 10 g/L.
# Experimental animals are male SD rats of 6-8 weeks old, with weight of 190-215 g, which were purchased from Beijing Vital River Laboratory Animal Technology Co., Ltd. The SD rats were randomly divided into seven groups based on body weight, each group containing three rats. Wherein group 1 is the blank control group in which the blank solution was administrated intravenously.
# Before the pharmacokinetic test, the SD rats were fasted for 16 hours, and then administrated intravenously (1 mL/kg; 10 mg/kg) or orally (1 mL/kg; 10 mg/kg) with single dose of the compound or blank solution according to Table 4. After administration 200 uL blood samples were collected regularly through jugular vein puncture, wherein for the group of animals administered intravenously, blood samples were collected at 0 minute, 15 minutes, 30 minutes, 1 hour, 2 hours, 4 hours, 8 hours and 24 hours after administration; for the group of animals administered orally, blood samples were collected at 0 minute, 15 minutes, 30 minutes, 45 minutes, 75 minutes, 135 minutes, 4 hours, 8 hours and 24 hours after administration. The blood samples were collected in a sample tube with EDTA, and immediately centrifuged under 4000 rpm for 0.5 minutes at 4° C., and then the plasma was transferred to another sample tube and stored at −20° C.
# The method and instruments for pharmacokinetics test of samples were as follows: • HPLC: Shimadzu (DGV-20A3, Serial NO: SSI-3-0536; LC-20AD Serial NO: • L20104551674 USB and L20104551673 USB), CTC Analytics HTC PAL System (Serial NO: 4353); • MS: AB API4000 Q Trap LC/MS/MS instrument (Serial NO. AR19020706) • Column: Phenomenex Luna 5μ C18 (2.0×50 mm) • Mobile phase: 100% acetonitrile (2 mM ammonium acetate) and 100% water (2 mM ammonium acetate) • Quantitative Method: internal standard method
# male SD rats [3] = experiment: Urine glucose at end of glucose tolerance test (Example 6); format: in vivo; conditions: for Urine glucose: 10 mg/kg orally, urine collected at end of glucose tolerance test, Mean ± SD
# Experimental: as §1, §2
# At the end of the test, urine of the rats in each group was collected, and then the urine glucose level was analyzed by using TOSHIBA TBA-40FR automatic biochemical analyzer.
# as §3
# [4] = 2 μM
# Experimental: (§4) 1) Master solution was prepared according to Table 1, and then the test compounds and control compound were added into the master solution, with the final concentration of these compounds in the reaction system being 2 μM. Then the mixed solution was preheated at 37° C. for 2 minutes.
# (§5) 2) NADPH was added into the mixed solution with the final concentration of NADPH being 1 mM, and then the reaction system was incubated at 37° C. The blank control was also added with the same volume of ultrapure water instead of NADPH.
# (§6) 3) 50 μL aliquots were taken out from the reaction system at 0, 15, 30, 45 and 60 minutes, and added with 3 volumes of cold methanol to terminate the reaction. The aliquot was centrifugated for 10 minutes under 16000 g to precipitate proteins. 100 μL of supernatant was used for LC/MS/MS analysis, to determine the amounts of the remaining test compounds and the control compound. The aliquots were detected in duplicate.
# (§7) The instruments and conditions for LC analysis were as follows:
# (§8) Shimadzu (Degasser DGU—20A3, Solvent Delivery Unit LC—20ADXR, System Controller CBM—20A, Column Oven CTO—10ASVP), CTC Analytics HTC PAL—XT System
# (§9) Column: Phenomenex 5μ C 18 (2) (2.0×50 mm)
# (§10) The instrument and conditions for MS/MS analysis were as follows: • AB API4000 LC/MS/MS instrument • Source: Turbo spray • Ionization mode: ESI • Type of scan: MRM • Collision gas: 6 L/min; curtain gas: 30 L/min; atomized gas: 50 L/min; auxiliary gas: 50 L/min; temperature: 500° C.; spray voltage: 4500 v.
# male SD rats [5] = experiment: Oral glucose tolerance test, glucose 15 minutes after administration (Example 5); format: in vivo; conditions: 10 mg/kg orally; for Blood glucose / ΔAUC: Mean ± SD; for Effect on blood glucose level (in words): compared with the blank control group
# Experimental: Compound 1, compound 2 and compound 3 were respectively dissolved in blank solutions (5% 1-methyl-2-pyrrolidinone, 20% PEG-400 and 20 mM sodium diphosphate) in the concentration of 10 g/L.
# Experimental animals are male SD rats of 6-8 weeks old, with weight of 190-215 g, which were purchased from Beijing Vital River Laboratory Animal Technology Co., Ltd. The SD rats were randomly divided into four groups based on body weight, each group containing three rats. Wherein group 1 is the blank control group in which the rats were administrated with the above blank solution.
# as §2, with “15 minutes” for “8 hours”
# as §3
# [6] = male, 2 μM
# Experimental: as §4, §5, §6, §7, §8, §9, §10
# [7] = Stability test in vitro, human liver microsomes with NADPH; conditions: 2 μM, NADPH 1 mM, 37° C.
# Experimental: as §4, §5, §6, §7, §8, §9, §10
# [8] = Stability test in vitro, male rat liver microsomes with NADPH; conditions: 2 μM, NADPH 1 mM, 37° C.
# Experimental: as §4, §5, §6, §7, §8, §9, §10
# [9] = glucose 2 g/kg 8 hours after administration, 15 minutes after glucose
# [10] = glucose 2 g/kg 8 hours after administration, 30 minutes after glucose
# [11] = glucose 2 g/kg 8 hours after administration, 1 hour after glucose
# [12] = glucose 2 g/kg 8 hours after administration, 2 hours after glucose
# [13] = glucose 2 g/kg 8 hours after administration
# [14] = time 0 (baseline 8 hours after administration, before glucose 2 g/kg)
# [15] = iv, administrated intravenously
# [16] = glucose 2 g/kg 15 minutes after administration, 15 minutes after glucose
# [17] = glucose 2 g/kg 15 minutes after administration, 30 minutes after glucose
# [18] = glucose 2 g/kg 15 minutes after administration, 1 hour after glucose
# [19] = glucose 2 g/kg 15 minutes after administration, 2 hours after glucose
# [20] = glucose 2 g/kg 15 minutes after administration
# [21] = time 0 (baseline 15 minutes after administration, before glucose 2 g/kg)
CI_obs ([2]; administrated intravenously),Vss_obs ([2]; administrated intravenously),"AUC(0-inf) [2, 15]","AUC(0-t) [2, 15]","C0 [2, 15]","MRT [2, 15]","half-life [2, 15]","AUC(0-inf) ([2]; po, administrated orally)","AUC(0-t) ([2]; po, administrated orally)","C0 ([2]; po, administrated orally)","Tmax ([2]; po, administrated orally)","half-life ([2]; po, administrated orally)","bioavailability ([2]; po, administrated orally)",SMILES,Blood glucose (male SD rats [1]; [9]),Blood glucose (male SD rats [1]; [10]),Blood glucose (male SD rats [1]; [11]),Blood glucose (male SD rats [1]; [12]),ΔAUC (male SD rats [1]; [13]),Blood glucose (male SD rats [1]; [14]),Urine glucose (male SD rats [3]),further results
2.99 mL/min/kg,0.903 L/kg,56500 ng·h/mL,55800 ng·h/mL,11000 ng/mL,4.76 h,3.95 h,39100 ng·h/mL,41400 ng·h/mL,3880 ng/mL,1.25 h,4.14 h,69.1%,"CCOc1ccc(Cc2cc([C@@H]3O[C@H](CO)[C@@H](O)[C@H](O)[C@H]3O)ccc2Cl)cc1 [Compound 1, Dapagliflozin, reference compound]",96.60 ± 21.70 mg/dL,131.40 ± 8.25 mg/dL,123.60 ± 4.53 mg/dL,72.60 ± 6.81 mg/dL,107.90 ± 8.53 mg·h/dL,50.40 ± 9.52 mg/dL,294.90 ± 12.29 mmol/L,Residual percentage of compounds in human liver microsome ([4]; 0 min): 100.00%; Residual percentage of compounds in human liver microsome ([4]; 15 min): 100.36%; Residual percentage of compounds in human liver microsome ([4]; 30 min): 102.10%; Residual percentage of compounds in human liver microsome ([4]; 45 min): 101.77%; Blood glucose (male SD rats [5]; [16]): 97.2 ± 17.36 mg/dL; Blood glucose (male SD rats [5]; [17]): 102.6 ± 20.44 mg/dL; Blood glucose (male SD rats [5]; [18]): 94.8 ± 17.11 mg/dL; Blood glucose (male SD rats [5]; [19]): 72.0 ± 10.95 mg/dL; ΔAUC (male SD rats [5]; [20]): 20.2 ± 19.32 mg·h/dL; Blood glucose (male SD rats [5]; [21]): 85.2 ± 4.53 mg/dL; Residual percentage of compounds in rat liver microsome ([6]; 0 min): 100.00%; Residual percentage of compounds in rat liver microsome ([6]; 15 min): 88.37%; Residual percentage of compounds in rat liver microsome ([6]; 30 min): 90.68%; Residual percentage of compounds in rat liver microsome ([6]; 45 min): 83.66%
1.59 mL/min/kg,1.18 L/kg,107000 ng·h/mL,87800 ng·h/mL,11300 ng/mL,7.35 h,9.8 h,193000 ng·h/mL,77300 ng·h/mL,5090 ng/mL,1.25 h,30 h,88%,OC[C@H]1O[C@@H](c2ccc(Cl)c(Cc3ccc(OCC(F)(F)F)cc3)c2)[C@H](O)[C@@H](O)[C@@H]1O [Compound 2],103.20 ± 12.64 mg/dL,154.20 ± 2.75 mg/dL,141.00 ± 2.08 mg/dL,85.20 ± 1.04 mg/dL,115.00 ± 3.55 mg·h/dL,62.40 ± 2.75 mg/dL,197.90 ± 56.27 mmol/L,"Residual percentage of compounds in human liver microsome ([7]; sampling time 0 minute): 100.00%; Residual percentage of compounds in human liver microsome ([7]; sampling time 15 minutes): 80.84%; Residual percentage of compounds in human liver microsome ([7]; sampling time 30 minutes): 78.78%; Residual percentage of compounds in human liver microsome ([7]; sampling time 45 minutes): 76.73%; Residual percentage of compounds in human liver microsome ([7]; sampling time 60 minutes): 75.34%; Residual percentage of compounds in rat liver microsome ([8]; sampling time 0 minute): 100.00%; Residual percentage of compounds in rat liver microsome ([8]; sampling time 15 minutes): 88.20%; Residual percentage of compounds in rat liver microsome ([8]; sampling time 30 minutes): 94.51%; Residual percentage of compounds in rat liver microsome ([8]; sampling time 45 minutes): 91.65%; Residual percentage of compounds in rat liver microsome ([8]; sampling time 60 minutes): 88.27%; Effect on blood glucose level (in words) (male SD rats [1]): effect of lowering blood glucose level; Urine glucose level (in words) (male SD rats [3]; compared to the blank control group, oral administration): significantly increased; Blood glucose (male SD rats [5]; [16]): 126.6 ± 26.11 mg/dL; Blood glucose (male SD rats [5]; [17]): 143.4 ± 24.44 mg/dL; Blood glucose (male SD rats [5]; [18]): 138.6 ± 17.17 mg/dL; Blood glucose (male SD rats [5]; [19]): 97.2 ± 13.59 mg/dL; ΔAUC (male SD rats [5]; [20]): 77.2 ± 20.44 mg·h/dL; Blood glucose (male SD rats [5]; [21]): 85.8 ± 2.75 mg/dL; Effect on blood glucose level (in words) (male SD rats [5]): effect of lowering blood glucose level"
0.75 mL/min/kg,1.56 L/kg,260000 ng·h/mL,113000 ng·h/mL,6640 ng/mL,10.1 h,28.3 h,44700 ng·h/mL,20800 ng·h/mL,1400 ng/mL,8 h,20.4 h,17.2%,OC[C@H]1O[C@@H](c2ccc(Cl)c(C(F)(F)c3ccc(OCC(F)(F)F)cc3)c2)[C@H](O)[C@@H](O)[C@@H]1O [Compound 3],148.80 ± 9.06 mg/dL,198.60 ± 8.51 mg/dL,183.00 ± 12.25 mg/dL,128.40 ± 3.75 mg/dL,144.40 ± 18.72 mg·h/dL,90.00 ± 1.80 mg/dL,0.10 ± 0.17 mmol/L,Residual percentage of compounds in human liver microsome ([7]; sampling time 0 minute): 100.00%; Residual percentage of compounds in human liver microsome ([7]; sampling time 15 minutes): 105.74%; Residual percentage of compounds in human liver microsome ([7]; sampling time 30 minutes): 98.43%; Residual percentage of compounds in human liver microsome ([7]; sampling time 45 minutes): 101.18%; Residual percentage of compounds in human liver microsome ([7]; sampling time 60 minutes): 97.89%; Residual percentage of compounds in rat liver microsome ([8]; sampling time 0 minute): 100.00%; Residual percentage of compounds in rat liver microsome ([8]; sampling time 15 minutes): 99.00%; Residual percentage of compounds in rat liver microsome ([8]; sampling time 30 minutes): 92.49%; Residual percentage of compounds in rat liver microsome ([8]; sampling time 45 minutes): 97.25%; Residual percentage of compounds in rat liver microsome ([8]; sampling time 60 minutes): 108.11%; Effect on blood glucose level (in words) (male SD rats [1]): effect of lowering blood glucose level; Blood glucose (male SD rats [5]; [16]): 143.4 ± 18.91 mg/dL; Blood glucose (male SD rats [5]; [17]): 172.8 ± 25.01 mg/dL; Blood glucose (male SD rats [5]; [18]): 148.2 ± 11.98 mg/dL; Blood glucose (male SD rats [5]; [19]): 88.8 ± 17.11 mg/dL; ΔAUC (male SD rats [5]; [20]): 87.6 ± 15.90 mg·h/dL; Blood glucose (male SD rats [5]; [21]): 90.0 ± 13.59 mg/dL; Effect on blood glucose level (in words) (male SD rats [5]): effect of lowering blood glucose level
